Data: patent publication US10197557B2, “Small molecules for endothelial cell activation” (The Regents of the University of California, priority 2011, dated 2019)
“Also recorded” adds a separate entry of the source.

Key:
human endothelial cells = test: EC-PBMC co-culture assay, chemokines quantified by cytometric bead arrays; format: cell-based; settings: for EC activation of octahydro-1,6-naphthyridin-4-one analogs (percent induction relative to IFNγ): focused library of 96 analogs, initial test (FIG. 6A, 6B)
Protocol: FIGS. 9A-9C show a further embodiment of the invention biological platform for the detection of activated endothelium. (A) Primary endothelial cells were seeded to confluence in a 96 well format and activated by IFNγ (10 ng/ml). After 5 hours, IFNγ was removed, wells were washed, and then primary human peripheral blood mononuclear cells (PBMC) were added at a ratio of 3:1 (PBMC:EC). 20-24 hours later, supernatants were removed and chemokines were quantified by cytometric bead arrays. (B) MIP1β production, but not MIP1α or IL8 levels, reliably detects endothelium activated by IFNγ. Chemokines produced in co-culture conditions with quiescent vs. activated EC; data represent the results from n=7 (MIP1α and MIP1β) and n=6 (IL8) independent experiments. (C) Chemical library screen for compounds that activate human endothelium. A 642 compound library was added following the same method as in A and B. Controls included DMSO and IFNγ on each plate. Supernatants were measured for chemokines by cytometric bead arrays.
Activation of the endothelium is intricately linked to innate immunity. […] Therefore we hypothesized that compounds that “activate” the endothelium could be identified indirectly—endothelium encountering activating compounds would gain the capacity to trigger chemokine production by monocytes. To test this hypothesis, we designed an EC-monocyte co-culture system amenable to high-throughput compound screening (FIG. 9A). […] Subsequently, EC were treated with DMSO (vehicle control), IFNγ (EC-activation control), and a collection of 642 compounds (final concentration, […]) (FIG. 9C). Of the 642 compounds, 37 (5.8%) promoted MIP1β production (FIG. 5A).
HUVEC were grown to 80-90% confluency in T150 flasks (Corning). On the day of experiments, HUVEC were harvested and plated at a confluent density in 96 well plates; these were either half or full volume plates, requiring 2.5-5×10^4 EC per well, respectively, in complete EBM-2 media (Lonza). After adherence for 2-3 hours, IFNγ (10 ng/ml), DMSO, or compound library (final concentration, […]) was added in incomplete EBM-2 media (Lonza). After 5 hours, stimuli were removed and cells were gently washed twice with RPMI (Invitrogen), followed by addition of 7.5-10×10^4 human PBMC in 10% FCS. For cytokine analysis, […] was removed at 24 hours for CBA analysis. The biological effects observed were not attributable to either LPS contamination, nor to cellular toxicity, as determined by flow cytometric analysis and 3-(4,5-dimethylhiazol-2-yl)-2,5-diphenyl tetrazolium bromide (MTT) assay.
[…] of supernatant from EC alone, PBMC alone, or co-culture conditions was collected for CBA analysis for IL8, MIP1α, and MIP1β. CBA was performed as per the manufacturer's recommendations (Becton Dickinson). Standard curves and all samples were acquired on a FacsCalibur flow cytometer and data was analyzed using FloJo software.

E-selectin = E-selectin expression on EC by flow cytometric analysis; format: cell-based, human; settings: in comparison to vehicle control (FIG. 8C)
Protocol: (§1) HUVEC were stimulated with IFNγ, DMSO, or compounds of interest (10 μM) for 5 hours. Stimuli were removed and cells were gently washed and media was replaced with 10% FCS for 24 hours. Cells were stained with anti-ICAM1 and anti-E-selectin, or appropriate isotype antibodies. For intracellular chemokine staining, stimulations of HUVEC were carried out as mentioned above with IFNγ, DMSO and compound of interest. After 8 hours of PBMC and HUVEC co-culture incubation, Golgi Plug (Becton Dickinson) was added to the culture and incubation carried out for an additional 16 hours. After the incubation cells were fixed, permeabilized and stained with anti-CD14 and anti-MIP1b or appropriate isotype controls. Samples were then analyzed with a FacsCalibur flow cytometer and subsequent data analysis was performed using FloJo software.

HUVEC = test: Transcriptome profiling (microarray) of treated EC, Ingenuity Pathway Analysis; format: cell-based, human; settings: 10 μM, 5 hours; for gene probes induced in comparison to vehicle control: fold change >1.25, p-value <0.05
Protocol: HUVEC were grown as described above, and then plated at 1×10^6 in 6 well plates in complete EBM-2. […] After 5 hours, media was removed and RNA was extracted using Trizol (Invitrogen), followed by RNeasy Minelut Cleanup Kit (Qiagen). RNA was taken to the UCLA Microarray Core Center where it was processed using the Human Genome Affymetrix U133 Plus 2.0 Array. Microarray data was analyzed using dChip software (version Nov. 18, 2007) from the Cheng Li Lab at http://biosun1.harvard.edu/complab/dchip. For statistical analysis using dChip software, only gene probes that were minimally present in two of the three replicates were used, and parameters for significance were set at fold change >1.25, p-value <0.05. Total number of probes present for active analogue (D10): 30,228. […] Unsupervised dendrograms were created using dChip software. Genes with known function in immune regulation were selected based on published databases and gene functions identified by Gene Ontology or OMIM; dendrogram was created using dChip software.
Experimental results were compared using student t-tests; results were considered significant if p-value was <0.05. Canonical network analysis for all expressed probes in D10 and E2 datasets was performed by using Ingenuity Pathway Analysis software (version 6.0; Ingenuity Systems).

MIP1β = test: Intracellular flow cytometry of EC-PBMC co-cultures (CD14, MIP1β); format: cell-based, human; settings: PBMC added to activated EC (FIG. 5D)
Protocol: as §1

Cc1ccc(S(=O)(=O)N2[C@H](c3ccccc3)CC(=O)[C@@H]3CN(S(C)(=O)=O)[C@H](c4ccccc4)C[C@@H]32)cc1 [2B2]
EC activation of octahydro-1,6-naphthyridin-4-one analogs (percent induction relative to IFNγ) (human endothelial cells): lost their activity; also recorded: inactive

Cc1ccc(S(=O)(=O)N2C[C@H]3[C@@H](O)C[C@@H](c4ccccc4)N(S(=O)(=O)c4ccc(C)cc4)[C@H]3C[C@H]2c2cccc(Cl)c2)cc1 [2B6]
EC activation of octahydro-1,6-naphthyridin-4-one analogs (percent induction relative to IFNγ) (human endothelial cells): active

CCO[C@H]1C[C@@H](c2ccccc2)N(S(=O)(=O)c2ccc(C)cc2)[C@H]2C[C@@H](c3cccc(Cl)c3)N(S(=O)(=O)c3ccc(C)cc3)C[C@@H]12 [2B7]
EC activation of octahydro-1,6-naphthyridin-4-one analogs (percent induction relative to IFNγ) (human endothelial cells): active

Cc1ccc([C@@H]2C[C@H]3[C@@H](CN2S(=O)(=O)c2ccccc2)C(=O)C[C@@H](c2ccccc2)N3S(=O)(=O)c2ccc(C)cc2)cc1 [C8]
EC activation of octahydro-1,6-naphthyridin-4-one analogs (percent induction relative to IFNγ) (human endothelial cells): active

COc1ccc([C@@H]2C[C@H]3[C@@H](CN2S(=O)(=O)c2ccccc2)C(=O)C[C@@H](c2ccc(C)cc2)N3S(=O)(=O)c2ccc(C)cc2)cc1 [C9]
EC activation of octahydro-1,6-naphthyridin-4-one analogs (percent induction relative to IFNγ) (human endothelial cells): active

COc1ccc([C@@H]2CC(=O)[C@@H]3CN(S(=O)(=O)c4ccc(C)cc4)[C@H](c4ccccc4)C[C@@H]3N2S(=O)(=O)c2ccccc2)cc1 [D5]
EC activation of octahydro-1,6-naphthyridin-4-one analogs (percent induction relative to IFNγ) (human endothelial cells): did not exhibit EC-activation; also recorded: inactive

Cc1ccc([C@@H]2C[C@H]3[C@@H](CN2S(=O)(=O)c2ccc(C)cc2)C(=O)C[C@@H](c2ccc(C)cc2)N3S(=O)(=O)c2ccc(C)cc2)cc1 [D6]
EC activation of octahydro-1,6-naphthyridin-4-one analogs (percent induction relative to IFNγ) (human endothelial cells): active

COc1ccc([C@@H]2CC(=O)[C@@H]3CN(S(=O)(=O)c4ccc(C)cc4)[C@H](c4ccc(C)cc4)C[C@@H]3N2S(=O)(=O)c2ccccc2)cc1 [D9]
EC activation of octahydro-1,6-naphthyridin-4-one analogs (percent induction relative to IFNγ) (human endothelial cells): did not exhibit EC-activation; also recorded: inactive

CCc1ccc([C@@H]2C[C@H]3[C@@H](CN2S(=O)(=O)c2ccc(C)cc2)C(=O)C[C@@H](c2ccc(CC)cc2)N3S(=O)(=O)c2ccc(C)cc2)cc1 [D10]
EC activation of octahydro-1,6-naphthyridin-4-one analogs (percent induction relative to IFNγ) (human endothelial cells): active | E-selectin expression levels (protein) (E-selectin): markedly enhanced | gene probes induced in comparison to vehicle control (HUVEC; EC): 201 gene probes | canonical pathways engaged (Ingenuity Pathway Analysis) (HUVEC; induced genes of EC): 32 canonical pathways | E-selectin gene induction (HUVEC; microarray, EC): uniquely induced

CCc1ccc([C@@H]2C[C@H]3[C@@H](CN2S(=O)(=O)c2ccc(C)cc2)C(=O)C[C@@H](c2ccc(Cl)cc2)N3S(=O)(=O)c2ccc(C)cc2)cc1 [D11]
EC activation of octahydro-1,6-naphthyridin-4-one analogs (percent induction relative to IFNγ) (human endothelial cells): active

CCc1ccc([C@@H]2C[C@H]3[C@@H](CN2S(=O)(=O)c2ccc(C)cc2)C(=O)C[C@@H](c2ccc(OC)cc2)N3S(=O)(=O)c2ccccc2)cc1 [E2]
EC activation of octahydro-1,6-naphthyridin-4-one analogs (percent induction relative to IFNγ) (human endothelial cells): some activity; also recorded: inactive | EC activation, confirmatory studies (human endothelial cells; validation of analogs, FIG. 6C, two independent experiments in triplicate wells): relatively inactive | gene probes induced in comparison to vehicle control (HUVEC; EC): 49 gene probes | networks related to immune regulation activated (HUVEC; induced genes of EC): did not activate any networks related to immune regulation

Cc1ccc(S(=O)(=O)N2C[C@H]3C(=O)C[C@@H](c4ccccc4)N(S(=O)(=O)c4ccc(C)cc4)[C@H]3C[C@H]2c2ccccc2F)cc1 [E3]
EC activation of octahydro-1,6-naphthyridin-4-one analogs (percent induction relative to IFNγ) (human endothelial cells): active

COc1ccc([C@@H]2CC(=O)[C@@H]3CN(S(=O)(=O)c4ccc(C)cc4)[C@H](c4ccccc4F)C[C@@H]3N2S(=O)(=O)c2ccccc2)cc1 [E8]
EC activation of octahydro-1,6-naphthyridin-4-one analogs (percent induction relative to IFNγ) (human endothelial cells): did not exhibit EC-activation; also recorded: inactive

COc1ccc([C@@H]2CC(=O)[C@@H]3CN(S(=O)(=O)c4ccc(Cl)cc4)[C@H](c4ccc(C)cc4)C[C@@H]3N2S(=O)(=O)c2ccccc2)cc1 [F7]
EC activation of octahydro-1,6-naphthyridin-4-one analogs (percent induction relative to IFNγ) (human endothelial cells): did not exhibit EC-activation; also recorded: inactive

COc1ccc([C@@H]2C[C@H]3[C@@H](CN2S(=O)(=O)c2ccccc2)C(=O)C[C@@H](c2ccc(OC)cc2)N3S(=O)(=O)c2ccccc2)cc1 [F10]
EC activation of octahydro-1,6-naphthyridin-4-one analogs (percent induction relative to IFNγ) (human endothelial cells): did not exhibit EC-activation; also recorded: inactive

CCOc1cc(-c2ccccc2)nc2c1CN(S(=O)(=O)c1ccc(C)cc1)[C@H](c1cccc(Cl)c1)C2 [G9]
EC activation of octahydro-1,6-naphthyridin-4-one analogs (percent induction relative to IFNγ) (human endothelial cells): inactive

Cc1ccc(S(=O)(=O)N2CC[C@H]3[C@@H](C2)C(=O)C[C@@H](c2ccccc2)N3S(=O)(=O)c2ccc(C)cc2)cc1 [H6]
EC activation of octahydro-1,6-naphthyridin-4-one analogs (percent induction relative to IFNγ) (human endothelial cells): did not affect the naphthyridinone's EC-activation; also recorded: active

Cc1ccc(S(=O)(=O)N2C[C@H]3C(=O)C[C@@H](c4ccccc4)N(S(C)(=O)=O)[C@H]3C[C@H]2c2ccccc2)cc1 [H11]
EC activation of octahydro-1,6-naphthyridin-4-one analogs (percent induction relative to IFNγ) (human endothelial cells): lost their activity; also recorded: inactive

interferon gamma [IFNγ]
MIP1α production in co-culture (human endothelial cells; treated EC co-cultured with PBMC (FIG. 10B)): comparable levels | IL8 production from monocytes in co-culture (human endothelial cells; treated EC co-cultured with PBMC, in comparison to DMSO (FIG. 10A)): inhibited | dominant producers of MIP1β in co-culture (MIP1β): CD14+ monocytes
